Patent US4110626A, “Method for improving the quality of the fragrance of perfumes using aliphatic dibasic acid diesters” (Shiseido Co., Ltd., priority 1976, dated 1978)

Columns and labels:
skin of a guinea pig = experiment: Cumulative irritation on the skin of a guinea pig; assay type: in vivo; settings: 0.3 ml three times at 24 hour intervals, intact skin
Protocol: The cumulative irritation on the skin of a guinea pig was evaluated by coating 0.3 ml of a test agent on intact skin of the guinea pig and judging the skin reaction after a lapse of 24 hours, then coating the test agent in an amount of 0.3 ml on the same site twice, each at 24 hour intervals, and judging the reaction of the skin after a lapse of 72 hours (after coating three times).

[1] = Fixing effect: HS-GC (II), analysis of volatilized portion after standing 15 minutes; assay type: physicochemical; settings: for Analysis of Volatilized Portion after Standing 15 Minutes (HS-GC (II) Method): controlling agent 15%, model perfume 5%
Protocol: (§1) Then, the fixing effect was evaluated by a second head space gas chromatographic (II) method (HS-GC (II)). Specifically, a perfume containing 0.7 g of a perfume controlling agent was coated on a sheet of paper having a predetermined thickness, area (11.5 × 7.5 cm), and weight (about 2.9 g). The coated paper was allowed to stand for 15 minutes in an open space in a room (6 × 4 × 2.5 m) maintained at a humidity of 50% at a ventilation rate of 1,500 m^3 /hr. The paper was then transferred into a 1,000 ml Erlenmeyer flask, and the flask was tightly sealed. After a lapse of 15 minutes, the volatilized portion was collected and analyzed by gas chromatography under the conditions shown Table A above. Furthermore, the residue on the paper was extracted with acetone, and analyzed by gas chromatography using conditions shown in Table B below.
(§2) The composition of the model perfume used was as follows:
Model Perfume: 5% by weight
95% Ethanol: 95% by weight
The composition of the perfume containing a perfume controlling agent was as follows:
Perfume Controlling Agent: 15% by weight
95% Ethanol: 80% by weight

[2] = Acute oral toxicity (LD50)
[3] = Fixing effect: analysis of residue on paper after standing 15 minutes; assay type: physicochemical
Protocol: as §1
Column: 5% FFAP (free fatty acid polyester; a trade name for a product of Nippon Chromato Co., Ltd.) on diatomaceous earth (2m)
Column Temperature: 80° C (5 minutes, isothermal) to 220° C (4° C/min.)
Injector Temperature: 260° C
Detector Temperature: 260° C
(§3) Detector: Flame Ionization Detector
(§4) Carrier Gas: He (40 ml/min.)
as §2
The values shown in Table 5 above were obtained by calculating the areas of the perfumes while the area of musk ketone measured by gas chromatography was taken as 1. (This calculating procedure was adopted because musk ketone has a high boiling point, and scarcely volatilizes at 30° C.)

[4] = Stabilizing effect on octanal (APHA color); assay type: physicochemical; settings: 37° C, 1 month; original APHA 15; 50% controlling agent added or octanal alone
Protocol: Octanal was selected as a single perfume, and the stabilizing effect of the perfume controlling agent was determined.
Amount of Perfume Controlling Agent: 50% based on the octanal (in the case of both DIBA and DIAA)
Test Temperature and Period: 37° C, one month (checked every week)
Items Evaluated: Acid value (AV), carbonyl value (COV), APHA color
In the test, a 100 ml brown bottle boiled in water for 12 hours was used, and the head space of the bottle was purged with nitrogen gas after the octanal had been introduced into the bottle.
Specifically, the color of a solution obtained by diluting 1 ml of a standard original color liquid (octanal) with water exactly to a volume of 100 ml is taken as APHA No. 5, and the APHA color number is increased by a multiple of 5 (as 10, 15, 20 . . . ) for every 1 ml increase of the original liquid.

[5] = Fixing effect: head space gas chromatographic (I) method (HS-GC (I)); assay type: physicochemical; settings: 35° C, 60 minutes
Protocol: A model perfume formulation was prepared using eight typical perfumes having different chemical structures, and the fixing effect of a perfume controlling agent was evaluated.
The fixing effect of the perfume controlling agent was determined using a head space gas chromatographic (I) method (to be abbreviated hereinafter as HS-GC (I) method). Specifically, 0.5 g of a perfume containing the perfume controlling agent was placed in an Erlenmeyer flask, and after sealing, the flask was allowed to stand at 35° C for 60 minutes.
Column: 3% polyethylene glycol having a molecular weight of about 20,000 on diatomaceous earth (2m)
Column Temperature: -40° C (5 minutes, isothermal) flushed to 80° C and then to 200° C (4° C/min.)
Injector Temperature: 250° C
Detector Temperature: 250° C
as §3, §4

Pseudomonas aeruginosa = experiment: Microorganism assimilation; settings: for OD (turbidity): 660 nm
Protocol: 100 ml of the above liquid medium was placed in a 500 ml Sakaguchi flask, and sterilized at 120° C for 15 minutes in an autoclave in a customary manner. After cooling, the culture medium was inoculated with a prescribed amount of a suspension of the pre-cultured microorganism and cultivated at 30° C with shaking 120 times per minute.
Changes with time in the pH, turbidity, number of living cells were determined.
The turbidity was determined as follows: 2 ml of the culture broth was collected, and the precipitate was separated with a centrifugal separator. The precipitate was washed with acetone, and suspended in 2 ml of distilled water. The turbidity (OD) of the suspension at 660 nm was measured.

skin of an albino rabbit = experiment: Primary irritation of the skin of an albino rabbit; assay type: in vivo; settings: 0.3 ml, intact and abraded area, 24 hours
Protocol: The primary irritation of the skin of an albino rabbit was determined by adhering 0.3 ml of a test agent on a lint cloth patch, applying the cloth to an intact area and an abraded area of the skin of the back of the albino rabbit, and evaluating the skin reactions at these two areas after a lapse of 24 hours. Then, an overall evaluation was made.

**Q.** Which results are given for `CC(C)COC(=O)CCCCC(=O)OCC(C)C` [DIBA, diisobutyl adipate]?
**A.** Cumulative irritation on the skin (skin of a guinea pig): did not exhibit irritating effects; Analysis of Volatilized Portion after Standing 15 Minutes (HS-GC (II) Method) ([1]; Citral (not present: 3.5%)): 1.3%; Analysis of Volatilized Portion after Standing 15 Minutes (HS-GC (II) Method) ([1]; Limonene (not present: 2.6%)): 45.9%; Analysis of Volatilized Portion after Standing 15 Minutes (HS-GC (II) Method) ([1]; Linalool (not present: 45.2%)): 29.7%; Analysis of Volatilized Portion after Standing 15 Minutes (HS-GC (II) Method) ([1]; Linalyl Acetate (not present: 39.0%)): 16.4%; Analysis of Volatilized Portion after Standing 15 Minutes (HS-GC (II) Method) ([1]; Musk ketone (not present: 0.0%)): 0.0%; Analysis of Volatilized Portion after Standing 15 Minutes (HS-GC (II) Method) ([1]; Pinene (not present: 0.2%)): 2.4%; Volatility and fixing ability ([1]; conclusion from Tables 3, 4 and 5): balanced volatility and fixing ability like DEP and BB; LD50 ([2]; acute oral toxicity): 12.3 mL/kg; Acute toxicity compared with conventional perfume controlling agents ([2]; conclusion from Table 1): equal to, or lower than, other conventional perfume controlling agents; Analysis of Residue on Paper after Standing 15 Minutes (Area Ratio) ([3]; Citral (not present: 1.5), area of musk ketone taken as 1): 2; Analysis of Residue on Paper after Standing 15 Minutes (Area Ratio) ([3]; Limonene (not present: 0.3), area of musk ketone taken as 1): 0.6; Analysis of Residue on Paper after Standing 15 Minutes (Area Ratio) ([3]; Linalool (not present: 6.4), area of musk ketone taken as 1): 9.5; Analysis of Residue on Paper after Standing 15 Minutes (Area Ratio) ([3]; Linalyl Acetate (not present: 5.1), area of musk ketone taken as 1): 8.5; Analysis of Residue on Paper after Standing 15 Minutes (Area Ratio) ([3]; Musk Ketone (reference, taken as 1; not present: 1.0)): 1; Analysis of Residue on Paper after Standing 15 Minutes (Area Ratio) ([3]; Pinene (not present: 0.0), area of musk ketone taken as 1): 0; APHA color of octanal [4]: about 30 APHA; Head Space Analysis of the Perfume after Adding 50% of DIBA ([5]; Benzyl Acetate, content 11.0% (alone 12.5%)): 12.6%; Head Space Analysis of the Perfume after Adding 50% of DIBA ([5]; Geraniol, content 16.5% (alone 0.9%)): 0.5%; Head Space Analysis of the Perfume after Adding 50% of DIBA ([5]; Lily Aldehyde, content 27.5% (alone 0.4%)): 0.2%; Head Space Analysis of the Perfume after Adding 50% of DIBA ([5]; Limonene, content 5.5% (alone 53.4%)): 57.5%; Head Space Analysis of the Perfume after Adding 50% of DIBA ([5]; Linalool, content 11.0% (alone 15.0%)): 12.8%; Head Space Analysis of the Perfume after Adding 50% of DIBA ([5]; Linalyl Acetate, content 11.0% (alone 4.1%)): 0.1%; Head Space Analysis of the Perfume after Adding 50% of DIBA ([5]; Nonanal, content 1.1% (alone […])): 2.1%; Head Space Analysis of the Perfume after Adding 50% of DIBA ([5]; Rose P, content 16.5% (alone 5.1%)): 4.4%; pH (Pseudomonas aeruginosa; 0 days elapsed): 6.94; Number of Living Cells (Pseudomonas aeruginosa; 2 days elapsed): 2.3 × 10^7; pH (Pseudomonas aeruginosa; 2 days elapsed): 4.72; OD (turbidity) (Pseudomonas aeruginosa; 2 days elapsed): 0.152; Number of Living Cells (Pseudomonas aeruginosa; 7 days elapsed): 3 × 10^2; pH (Pseudomonas aeruginosa; 7 days elapsed): 4.42; OD (turbidity) (Pseudomonas aeruginosa; 7 days elapsed): 0.13; Number of Living Cells (Pseudomonas aeruginosa; 14 days elapsed): < 10^2; pH (Pseudomonas aeruginosa; 14 days elapsed): 4.40; OD (turbidity) (Pseudomonas aeruginosa; 14 days elapsed): 0.115; Assimilation by microorganism (Pseudomonas aeruginosa; conclusion from Table 8): assimilated very well; Primary irritation of the skin (skin of an albino rabbit): did not exhibit irritating effects
